Data from US10670605B2, “Cysteine reactive probes and uses thereof” (The Scripps Research Institute, priority 2015, dated 2020).
One block for each molecule: values may come before it.

Legend:
Assay in all cases: Competitive isoTOP-ABPP in situ (fragment-treated cells)
Format in all cases: cell-based
[1] = molecular target: T1, cysteines in MDA-MB-231 and Ramos cells (Homo sapiens, UniProt Q8IYQ7); conditions: 200 μM, insitu, 231
T1 sequence (Q8IYQ7 1-743): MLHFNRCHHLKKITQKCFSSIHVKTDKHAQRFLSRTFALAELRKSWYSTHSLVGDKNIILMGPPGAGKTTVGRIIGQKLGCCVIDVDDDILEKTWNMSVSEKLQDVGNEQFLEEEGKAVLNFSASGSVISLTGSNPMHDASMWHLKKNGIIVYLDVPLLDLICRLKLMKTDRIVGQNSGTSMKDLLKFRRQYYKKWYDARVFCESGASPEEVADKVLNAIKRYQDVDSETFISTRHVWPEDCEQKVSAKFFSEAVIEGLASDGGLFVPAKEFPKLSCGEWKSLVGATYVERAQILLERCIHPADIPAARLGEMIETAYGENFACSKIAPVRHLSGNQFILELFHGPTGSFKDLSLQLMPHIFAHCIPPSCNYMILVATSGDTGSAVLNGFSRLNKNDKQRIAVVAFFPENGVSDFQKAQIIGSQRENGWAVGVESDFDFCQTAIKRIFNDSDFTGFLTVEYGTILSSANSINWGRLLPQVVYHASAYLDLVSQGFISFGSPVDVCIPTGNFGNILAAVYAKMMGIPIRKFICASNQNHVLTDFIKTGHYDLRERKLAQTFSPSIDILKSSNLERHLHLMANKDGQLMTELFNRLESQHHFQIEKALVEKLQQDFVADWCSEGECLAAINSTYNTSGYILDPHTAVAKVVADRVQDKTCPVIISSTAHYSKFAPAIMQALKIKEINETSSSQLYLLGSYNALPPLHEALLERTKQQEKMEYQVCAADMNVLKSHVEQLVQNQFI

[2] = molecular target: cysteines in MDA-MB-231 and Ramos cells (Homo sapiens, UniProt O75150); conditions: 200 μM, insitu
Chain of cysteines in MDA-MB-231 and Ramos cells (Homo sapiens, UniProt O75150) (O75150 whole entry): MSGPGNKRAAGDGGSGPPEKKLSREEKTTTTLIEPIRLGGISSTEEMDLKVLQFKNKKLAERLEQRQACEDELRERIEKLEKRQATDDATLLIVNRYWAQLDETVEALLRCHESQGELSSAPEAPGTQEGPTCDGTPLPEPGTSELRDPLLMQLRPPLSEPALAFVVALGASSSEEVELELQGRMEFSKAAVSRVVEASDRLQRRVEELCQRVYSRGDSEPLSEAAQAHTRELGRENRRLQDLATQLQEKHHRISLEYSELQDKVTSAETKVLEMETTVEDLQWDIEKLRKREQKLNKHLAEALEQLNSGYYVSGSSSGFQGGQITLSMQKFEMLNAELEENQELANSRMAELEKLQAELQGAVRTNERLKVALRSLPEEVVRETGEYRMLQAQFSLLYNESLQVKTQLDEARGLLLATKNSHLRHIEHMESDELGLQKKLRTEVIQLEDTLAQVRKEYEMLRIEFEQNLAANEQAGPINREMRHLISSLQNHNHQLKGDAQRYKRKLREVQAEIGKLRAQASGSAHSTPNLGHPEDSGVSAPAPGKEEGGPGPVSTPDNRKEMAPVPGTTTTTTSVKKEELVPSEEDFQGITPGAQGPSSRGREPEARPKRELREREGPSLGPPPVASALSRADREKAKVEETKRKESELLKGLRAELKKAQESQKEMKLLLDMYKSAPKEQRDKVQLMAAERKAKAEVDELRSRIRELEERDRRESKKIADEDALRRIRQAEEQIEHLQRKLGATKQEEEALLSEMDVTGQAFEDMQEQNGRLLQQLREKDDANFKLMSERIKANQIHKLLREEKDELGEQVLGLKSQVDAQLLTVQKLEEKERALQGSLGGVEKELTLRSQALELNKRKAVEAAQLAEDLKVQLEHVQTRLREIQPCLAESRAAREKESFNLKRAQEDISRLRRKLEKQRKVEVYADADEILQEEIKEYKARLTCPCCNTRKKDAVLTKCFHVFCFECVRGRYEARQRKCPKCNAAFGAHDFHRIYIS

[3] = molecular target: cysteines in MDA-MB-231 and Ramos cells (Homo sapiens, UniProt Q6PCB5); conditions: 200 μM, insitu
Chain of cysteines in MDA-MB-231 and Ramos cells (Homo sapiens, UniProt Q6PCB5) (Q6PCB5 whole entry): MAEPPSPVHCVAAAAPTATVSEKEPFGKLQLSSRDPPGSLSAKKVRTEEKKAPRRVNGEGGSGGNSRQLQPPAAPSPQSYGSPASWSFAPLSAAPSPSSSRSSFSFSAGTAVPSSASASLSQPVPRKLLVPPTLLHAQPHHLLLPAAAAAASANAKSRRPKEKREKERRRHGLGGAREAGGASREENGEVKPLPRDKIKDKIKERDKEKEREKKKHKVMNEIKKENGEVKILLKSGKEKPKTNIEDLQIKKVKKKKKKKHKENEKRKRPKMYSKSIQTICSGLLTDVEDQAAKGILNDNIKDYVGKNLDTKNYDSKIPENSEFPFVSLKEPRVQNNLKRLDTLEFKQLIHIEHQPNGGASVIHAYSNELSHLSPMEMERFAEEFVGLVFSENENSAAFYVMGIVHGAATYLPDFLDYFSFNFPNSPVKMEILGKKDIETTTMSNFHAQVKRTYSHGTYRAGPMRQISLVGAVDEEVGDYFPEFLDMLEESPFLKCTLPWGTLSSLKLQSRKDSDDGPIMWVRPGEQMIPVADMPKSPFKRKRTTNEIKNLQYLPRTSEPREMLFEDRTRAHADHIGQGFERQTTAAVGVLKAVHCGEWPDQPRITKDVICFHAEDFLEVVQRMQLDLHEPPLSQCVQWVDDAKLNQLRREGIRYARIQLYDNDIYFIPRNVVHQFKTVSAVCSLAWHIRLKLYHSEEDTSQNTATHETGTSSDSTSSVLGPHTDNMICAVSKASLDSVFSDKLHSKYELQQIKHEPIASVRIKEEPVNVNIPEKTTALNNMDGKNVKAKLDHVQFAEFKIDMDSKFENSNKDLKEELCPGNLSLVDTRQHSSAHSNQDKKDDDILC

[4] = molecular target: cysteines in MDA-MB-231 and Ramos cells (Homo sapiens, UniProt O95881); conditions: 200 μM, insitu, 231
Chain of cysteines in MDA-MB-231 and Ramos cells (Homo sapiens, UniProt O95881) (O95881 27-172): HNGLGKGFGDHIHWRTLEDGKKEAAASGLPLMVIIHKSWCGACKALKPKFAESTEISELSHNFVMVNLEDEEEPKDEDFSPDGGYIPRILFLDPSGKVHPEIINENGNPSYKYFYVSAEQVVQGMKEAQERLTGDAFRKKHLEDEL

[5] = molecular target: T2, cysteines in MDA-MB-231 and Ramos cells (Homo sapiens, UniProt Q9UL40); conditions: 200 μM, insitu
T2 sequence (Q9UL40 1-294): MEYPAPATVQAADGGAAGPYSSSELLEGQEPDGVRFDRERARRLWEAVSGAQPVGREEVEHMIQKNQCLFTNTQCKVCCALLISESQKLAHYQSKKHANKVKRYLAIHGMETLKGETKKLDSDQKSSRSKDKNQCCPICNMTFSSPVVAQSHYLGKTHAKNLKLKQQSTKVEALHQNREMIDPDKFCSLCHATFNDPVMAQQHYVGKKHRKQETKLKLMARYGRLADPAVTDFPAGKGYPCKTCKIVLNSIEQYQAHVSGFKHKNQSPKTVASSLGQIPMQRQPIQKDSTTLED

[6] = molecular target: T3, cysteines in MDA-MB-231 and Ramos cells (Homo sapiens, UniProt Q8TD19); conditions: 200 μM, insitu
T3 sequence (Q8TD19 1-979): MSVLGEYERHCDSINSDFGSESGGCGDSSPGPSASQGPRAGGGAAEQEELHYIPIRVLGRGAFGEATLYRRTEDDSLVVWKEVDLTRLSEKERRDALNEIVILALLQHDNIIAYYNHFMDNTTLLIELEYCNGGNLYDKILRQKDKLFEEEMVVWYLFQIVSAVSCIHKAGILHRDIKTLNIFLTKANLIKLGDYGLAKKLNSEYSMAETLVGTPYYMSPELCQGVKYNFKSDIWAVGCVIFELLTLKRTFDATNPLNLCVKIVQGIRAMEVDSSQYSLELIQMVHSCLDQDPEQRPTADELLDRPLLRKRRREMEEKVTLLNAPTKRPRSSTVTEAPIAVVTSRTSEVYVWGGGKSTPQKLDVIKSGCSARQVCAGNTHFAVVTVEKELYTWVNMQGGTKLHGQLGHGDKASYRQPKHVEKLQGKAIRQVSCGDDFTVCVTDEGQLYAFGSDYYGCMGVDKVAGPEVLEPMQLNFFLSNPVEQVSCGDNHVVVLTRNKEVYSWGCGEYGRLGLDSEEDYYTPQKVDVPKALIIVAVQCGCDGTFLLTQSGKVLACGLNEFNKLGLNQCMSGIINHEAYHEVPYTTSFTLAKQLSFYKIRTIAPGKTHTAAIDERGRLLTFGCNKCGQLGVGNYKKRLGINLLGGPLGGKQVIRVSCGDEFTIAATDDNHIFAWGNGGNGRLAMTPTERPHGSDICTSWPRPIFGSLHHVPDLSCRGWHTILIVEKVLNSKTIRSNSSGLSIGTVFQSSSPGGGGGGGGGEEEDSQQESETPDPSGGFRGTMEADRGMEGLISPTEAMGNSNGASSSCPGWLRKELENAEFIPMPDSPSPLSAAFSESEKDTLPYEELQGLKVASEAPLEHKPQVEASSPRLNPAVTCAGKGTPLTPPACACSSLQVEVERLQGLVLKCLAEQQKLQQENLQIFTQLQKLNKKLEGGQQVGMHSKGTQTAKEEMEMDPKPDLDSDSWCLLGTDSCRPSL

[7] = molecular target: T4, cysteines in MDA-MB-231 and Ramos cells (Homo sapiens, UniProt Q6QNY0); conditions: 200 μM, insitu
T4 sequence (Q6QNY0 1-202): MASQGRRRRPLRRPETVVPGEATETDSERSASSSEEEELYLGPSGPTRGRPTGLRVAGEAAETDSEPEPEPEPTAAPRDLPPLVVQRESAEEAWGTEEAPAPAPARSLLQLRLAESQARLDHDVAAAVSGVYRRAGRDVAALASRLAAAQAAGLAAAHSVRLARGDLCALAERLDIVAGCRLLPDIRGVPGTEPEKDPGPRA

[8] = molecular target: T5, cysteines in MDA-MB-231 and Ramos cells (Homo sapiens, UniProt Q8N5L8); conditions: 200 μM, insitu, 231
T5 sequence (Q8N5L8 1-163): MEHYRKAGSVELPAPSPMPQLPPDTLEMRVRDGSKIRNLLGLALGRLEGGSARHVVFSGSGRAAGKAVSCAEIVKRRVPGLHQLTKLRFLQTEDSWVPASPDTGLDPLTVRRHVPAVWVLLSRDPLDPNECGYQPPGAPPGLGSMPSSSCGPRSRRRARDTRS

SMILES: COc1cc2c(cc1OC)CN(C(=O)CCl)CC2 [compound 8]
isoTOP-ABPP reactivity Q8IYQ7_C324 THNSL1 [1]: 20.0

SMILES: O=C(CCl)N1CCC(Cc2ccccc2)CC1 [compound 9]
isoTOP-ABPP reactivity Q8IYQ7_C324 THNSL1 [1]: 1.6

SMILES: O=C(CCl)N1CCN(S(=O)(=O)c2ccccc2F)CC1 [compound 10]
isoTOP-ABPP ratio, cysteine O75150_C890 ([2]; ramos): 4.2
isoTOP-ABPP ratio, cysteine Q8IYQ7_C324 [1]: 5.3

SMILES: O=C(CCl)NC(=O)NC12CC3CC(CC(C3)C1)C2 [compound 12]
isoTOP-ABPP ratio, cysteine Q6PCB5_C280 [3]; 231: 20.0
isoTOP-ABPP ratio, cysteine O95881_C66 [4]: 20.0
isoTOP-ABPP ratio, cysteine O75150_C890 [2]; 231: 1.1
isoTOP-ABPP ratio, cysteine Q9UL40_C68 [5]; 231: 20.0

SMILES: O=C(CCl)NCCc1c[nH]c2ccccc12 [compound 13]
isoTOP-ABPP ratio, cysteine Q8TD19_C623 ([6]; ramos): 20.0
isoTOP-ABPP ratio, cysteine Q6PCB5_C280 ([3]; ramos): 0.8
isoTOP-ABPP ratio, cysteine O95881_C66 [4]: 20.0
isoTOP-ABPP ratio, cysteine Q6QNY0_C168 ([7]; ramos): 1.2
isoTOP-ABPP ratio, cysteine Q8IYQ7_C324 [1]: 1.3
isoTOP-ABPP ratio, cysteine Q8N5L8_C131 [8]: 1.2
isoTOP-ABPP ratio, cysteine Q9UL40_C68 ([5]; ramos): 20.0

SMILES: O=C(CCl)NC12CC3CC(CC(C3)C1)C2 [compound 21]
isoTOP-ABPP ratio, cysteine Q8TD19_C623 [6]; 231: 0.8
isoTOP-ABPP ratio, cysteine Q8IYQ7_C324 [1]: 2.0
isoTOP-ABPP ratio, cysteine Q8N5L8_C131 [8]: 0.8

SMILES: CC(C)CCOCCNC(=O)CCl [compound 27]
isoTOP-ABPP ratio Q6PCB5_C280 [3]; 231: 1.0
isoTOP-ABPP ratio O75150_C890 [2]; 231: 1.2
isoTOP-ABPP ratio Q9UL40_C68 [5]; 231: 1.9

SMILES: O=C(CCl)N1CCN(CC(=O)N2CCOCC2)CC1 [compound 29]
isoTOP-ABPP ratio Q6PCB5_C280 ([3]; ramos): 1.4
isoTOP-ABPP ratio Q6QNY0_C168 ([7]; ramos): 1.6
isoTOP-ABPP ratio Q9UL40_C68 ([5]; ramos): 2.4

Now from value to molecule, other results behind:

isoTOP-ABPP ratio O75150_C890 [2]; 231: 0.7
SMILES: C=CC(=O)N(Cc1cccnc1)c1cc(C(F)(F)F)cc(C(F)(F)F)c1 [compound 31]
isoTOP-ABPP ratio Q8TD19_C623 [6]; 231: 0.7
isoTOP-ABPP ratio Q8TD19_C623 ([6]; ramos): 1.4

isoTOP-ABPP ratio O95881_C66 [4]: 1.0
isoTOP-ABPP ratio Q6QNY0_C168 [7]; 231: 1.0
SMILES: C=CC(=O)Nc1cc(F)c(N2CCN(C(=O)OC(C)(C)C)CC2)c(F)c1 [compound 38]

isoTOP-ABPP ratio O95881_C66 [4]: 1.0
isoTOP-ABPP ratio O75150_C890 [2]; 231: 1.3
SMILES: Cc1ccc(C=C(C#N)C(=O)NCCN2CCOCC2)cc1 [compound 41]
isoTOP-ABPP ratio Q8TD19_C623 [6]; 231: 0.6

isoTOP-ABPP ratio Q8N5L8_C131 [8]: 7.3
SMILES: CC1CCc2ccccc2N1C(=O)CCl (stereo not drawn) [compound 45]
